How the values were obtained:
[1] = test system: Porcine Smooth Muscle Cell; assay: Effects of compounds on cell proliferation using 3H thymidine incorporation (porcine smooth muscle cell antiproliferation); type: cell-based; details: for IC50: serum/growth factor stimulated cells, 24-36 h incubation; for Porcine Smooth Muscle Cell Antiproliferation, % at 50 μM: control (100%) = maximally stimulated cells
Experimental: Effects of Compounds on Cell Proliferation Using ^3H Thymidine Incorporation
Human and porcine smooth muscle cells were tested in early passage (generally passage 3-7) at sub-confluent conditions. Cultures were grown in 16 mm (24 well) multi-well culture dishes in medium 199 supplemented with 10% fetal bovine serum and 2% antibiotic/antimycotic. At sub-confluence, the cells were placed in a defined serum free medium (AIM-V; Gibco) for 24-48 h prior to initiating the experimental protocol.
Compounds were added to each well at 50 fold dilution (20 μL/well) and the plates were incubated for 24-36 h at 37° C. in 5% CO2. Compounds were initially dissolved in 50% ethanol and serially diluted into media. Compounds were routinely evaluated at concentrations from 1 to 100 μM. As a control, grade II porcine intestinal mucosal herapin (sodium salt) was routinely evaluated in all cell preparations at concentrations from 0.1 to 100 μg/mL.
At the completion of the test procedure, plates were placed on ice, washed three times with ice cold phosphate buffered saline (PBS) and incubated in ice cold 10% trichloroacetic acid (TCA) got 30 min to remove acid soluble proteins. Solution was transferred to scintillation vials containing 0.4 N HCl (500 μL/vial to neutralize NaOH) and each well was rinsed two times with water (500 μL) for a total volume of 2 mL/vial.
Data was obtained, in triplicate, for both control and experimental samples. Control (100%) data was obtained from maximally stimulated cells, as the result of growth factor or serum stimulation. Experimental data was obtained from cells maximally stimulated with growth factor or serum and treated with compound. Data are expressed as an IC50 in Table I below.

Compound	IC50 [1] [µM]	also measured
CC(=O)OC[C@H]1O[C@@H](NC(=O)c2ccc(Cl)c(N)c2)[C@H](OC(C)=O)[C@@H](OC(C)=O)[C@@H]1O[C@H]1O[C@H](COC(C)=O)[C@@H](OC(C)=O)[C@H](OC(C)=O)[C@H]1OC(C)=O [Example 2, 3-Amino-4-chloro-N-[2,3,6-tri-O-acetyl-4-O-(2,3,4,6-tetra-O-acetyl-α-D-glucopyranosyl)-β-D-glucopyranosyl}-benzamide]		IC50 ([1]; Sus scrofa): 11.1 µM; melting point: 115 to 119 °C
CC(=O)Nc1cc(C(=O)N[C@@H]2O[C@H](COC(C)=O)[C@@H](O[C@H]3O[C@H](COC(C)=O)[C@@H](OC(C)=O)[C@H](OC(C)=O)[C@H]3OC(C)=O)[C@H](OC(C)=O)[C@H]2OC(C)=O)ccc1Cl [Example 3, 3-(Acetylamino)-4-chloro-N-[2,3,6-tri-O-acetyl-4-O-(2,3,4,6-tetra-O-acetyl-α-D-glucopyranosyl)-β-D-glucopyranosyl}-benzamide]		IC50 ([1]; Sus scrofa): 54.3 µM; melting point: 122 to 124 °C
COc1cc(C(=O)N[C@@H]2O[C@H](COC(C)=O)[C@@H](O[C@H]3O[C@H](COC(C)=O)[C@@H](OC(C)=O)[C@H](OC(C)=O)[C@H]3OC(C)=O)[C@H](OC(C)=O)[C@H]2OC(C)=O)ccc1Cl [Example 22, 4-Chloro-3-methoxy-N-[2,3,6-tri-O-acetyl-4-O-(2,3,4,6-tetra-O-acetyl-α-D-glucopyranosyl)-β-D-glucopyranosyl]benzamide]		IC50 ([1]; Sus scrofa): 18.5 µM; melting point: 106 to 110 °C
CC(=O)OC1C(NC(=O)c2ccc(OCCCC#N)c([N+](=O)[O-])c2)OC(COC(=O)c2ccccc2)C(OC2OC3COC(c4ccccc4)OC3C(OC(C)=O)C2OC(C)=O)C1OC(C)=O [Example 31, N-(2,2′,3,3′-tetra-O-Acetyl-6-O-benzoyl-4′,6′-O-benzylidene-β-D-maltosyl)-4-(4-nitrilo-butoxy)-3-nitro-benzamide]		Porcine Smooth Muscle Cell Antiproliferation, % at 50 μM [1]: 15% at 50
CC(=O)OC[C@H]1O[C@@H](NC(=O)c2ccc(OCCCC#N)c(N)c2)[C@H](OC(C)=O)[C@@H](OC(C)=O)[C@@H]1O[C@H]1O[C@H](COC(C)=O)[C@@H](OC(C)=O)[C@H](OC(C)=O)[C@H]1OC(C)=O [Example 32]		Porcine Smooth Muscle Cell Antiproliferation, % at 50 μM [1]: 10% at 50
CC(=O)Nc1cc(C(=O)N[C@@H]2O[C@H](COC(C)=O)[C@@H](O[C@H]3O[C@H](COC(C)=O)[C@@H](OC(C)=O)[C@H](OC(C)=O)[C@H]3OC(C)=O)[C@H](OC(C)=O)[C@H]2OC(C)=O)ccc1OCCCC#N [Example 33]		Porcine Smooth Muscle Cell Antiproliferation, % at 50 μM [1]: 0% at 50
CC(=O)Nc1cc(C(=O)NC2OC(COC(=O)c3ccccc3)C(OC3OC4COC(c5ccccc5)OC4C(O)C3O)C(O)C2O)ccc1OCCCC#N [Example 34, 3-Acetylamino-N-(6-O-benzoyl-4′,6′-O-benzylidene-β-D-maltosyl)-4-(4-nitrilo-butoxy)-benzamide]	0.98	
CC(=O)OC[C@H]1O[C@@H](NC(=O)c2ccc(Cl)nc2)[C@H](OC(C)=O)[C@@H](OC(C)=O)[C@@H]1O[C@H]1O[C@H](COC(C)=O)[C@@H](OC(C)=O)[C@H](OC(C)=O)[C@H]1OC(C)=O [Example 35, N-(Hepta-O-acetyl-β-D-maltosyl)-6-chloropyridine-3-carboxamide]	66.6	
COc1ccc(C(=O)N[C@@H]2O[C@H](COC(C)=O)[C@@H](O[C@H]3O[C@H](COC(C)=O)[C@@H](OC(C)=O)[C@H](OC(C)=O)[C@H]3OC(C)=O)[C@H](OC(C)=O)[C@H]2OC(C)=O)c(OC)n1 [Example 36, N-(Hepta-O-acetyl-β-D-maltosyl)-2,6-dimethoxy-pyridine-3-carboxamide]	13.6	
CC(=O)OC[C@H]1O[C@@H](NC(=O)c2cncc(Br)c2)[C@H](OC(C)=O)[C@@H](OC(C)=O)[C@@H]1O[C@H]1O[C@H](COC(C)=O)[C@@H](OC(C)=O)[C@H](OC(C)=O)[C@H]1OC(C)=O [Example 37, N-(Hepta-O-acetyl-β-D-maltosyl)-5-bromopyridine-3-carboxamide]	16.4	
CC(=O)OC[C@H]1O[C@@H](NC(=O)c2cccc(C(F)(F)F)c2)[C@H](OC(C)=O)[C@@H](OC(C)=O)[C@@H]1O[C@H]1O[C@H](COC(C)=O)[C@@H](OC(C)=O)[C@H](OC(C)=O)[C@H]1OC(C)=O [Example 38, N-(Hepta-O-acetyl-β-D-maltosyl)-3-(trifluoromethyl)-benzamide]	5.8	
O=C(N[C@@H]1O[C@H](CO)[C@@H](O[C@H]2O[C@@H]3COC(c4ccccc4)O[C@H]3[C@H](O)[C@H]2O)[C@H](O)[C@H]1O)c1cccc(C(F)(F)F)c1 (stereo partly drawn) [Example 39, N-(4′,6′-O-Benzylidene-β-D-maltosyl)-3-(trifluoromethyl)-Benzamide]		Porcine Smooth Muscle Cell Antiproliferation, % at 50 μM [1]: 15% at 50
O=C(NC1OC(COC(=O)c2ccccc2)C(OC2OC3COC(c4ccccc4)OC3C(O)C2O)C(O)C1O)c1cccc(C(F)(F)F)c1 [Example 40, N-[{6-O-Benzoyl-4′,6′-O-benzylidene}-β-D-maltosyl]-3-(trifluoromethyl)-benzamide]	7.15	
CC(=O)OC[C@H]1O[C@@H](NC(=O)c2ccc(C)nc2)[C@H](OC(C)=O)[C@@H](OC(C)=O)[C@@H]1O[C@H]1O[C@H](COC(C)=O)[C@@H](OC(C)=O)[C@H](OC(C)=O)[C@H]1OC(C)=O [Example 41, N-(Hepta-O-acetyl-β-D-maltosyl)-6-methylpyridine-3-carboxamide]	65.8	
CCCCOc1c(Cl)cc(C(=O)N[C@@H]2O[C@H](CO)[C@@H](O[C@H]3O[C@H](CO)[C@@H](O)[C@H](O)[C@H]3O)[C@H](O)[C@H]2O)cc1Cl [Example 42, 4-Butoxy-3,5-dichloro-N-β-D-maltosyl-benzamide]	28.9	
CCCCOc1c(Cl)cc(C(=O)NC2OC(CO)C(OC3OC4COC(c5ccccc5)OC4C(O)C3O)C(O)C2O)cc1Cl [Example 43, N-(4′,6′-O-Benzylidene-β-D-maltosyl)-4-butoxy-3,5-dichloro-benzamide]	44.5	
COc1ccc(C(=O)N[C@@H]2O[C@H](COC(C)=O)[C@@H](O[C@H]3O[C@H](COC(C)=O)[C@@H](OC(C)=O)[C@H](OC(C)=O)[C@H]3OC(C)=O)[C@H](OC(C)=O)[C@H]2OC(C)=O)cc1Cl [Example 44, N-(Hepta-O-acetyl-β-D-maltosyl)-3-chloro-4-methoxy-benzamide]	5.4	
COc1ccc(CC(=O)N[C@@H]2O[C@H](COC(C)=O)[C@@H](O[C@H]3O[C@H](COC(C)=O)[C@@H](OC(C)=O)[C@H](OC(C)=O)[C@H]3OC(C)=O)[C@H](OC(C)=O)[C@H]2OC(C)=O)cc1OC [Example 45, N-(2,2′,3,3′,4′,6,6′-hepta-O-acetyl-β-D-maltosyl)-1-(3,4-dimethoxy)-phenyl-acetamide]	16.6	
COc1ccc(CC(=O)NC2OC(CO)C(OC3OC4COC(c5ccccc5)OC4C(O)C3O)C(O)C2O)cc1OC [Example 46, N-(4′,6′-Benzylidene-β-D-maltosyl)-2-(3,4-dimethoxy-phenyl)-acetamide]		Porcine Smooth Muscle Cell Antiproliferation, % at 50 μM [1]: 0% at 50
COc1ccc(CC(=O)NC2OC(COC(=O)c3ccccc3)C(OC3OC4COC(c5ccccc5)OC4C(O)C3O)C(O)C2O)cc1OC [Example 47, N-(6-O-Benzoyl-4′,6′-O-benzylidene-β-D-maltosyl)-2-(3,4-dimethoxy-phenyl)-acetamide]	8	
CC(=O)OC[C@H]1O[C@@H](NC(=O)Cc2ccc(O)c([N+](=O)[O-])c2)[C@H](OC(C)=O)[C@@H](OC(C)=O)[C@@H]1O[C@H]1O[C@H](COC(C)=O)[C@@H](OC(C)=O)[C@H](OC(C)=O)[C@H]1OC(C)=O [Example 48, N-(Hepta-O-acetyl-β-D-maltosyl)-2-(4-hydroxy-3-nitro-phenyl)-acetamide]		Porcine Smooth Muscle Cell Antiproliferation, % at 50 μM [1]: 37% at 50
CCCCOc1c(Cl)cc(C(=O)N[C@@H]2O[C@H](COC(C)=O)[C@@H](O[C@H]3O[C@H](COC(C)=O)[C@@H](OC(C)=O)[C@H](OC(C)=O)[C@H]3OC(C)=O)[C@H](OC(C)=O)[C@H]2OC(C)=O)cc1Cl [Example 49, N-(2,2′,3,3′,4′,6,6′-Hepta-O-acetyl-β-D-maltosyl)-4-butoxy-3,5-dichloro-benzylamide]	12.6	
CC(=O)OC[C@H]1O[C@@H](NC(=O)Cc2ccc(Cl)c([N+](=O)[O-])c2)[C@H](OC(C)=O)[C@@H](OC(C)=O)[C@@H]1O[C@H]1O[C@H](COC(C)=O)[C@@H](OC(C)=O)[C@H](OC(C)=O)[C@H]1OC(C)=O [Example 50, N-(2,2′,3,3′,4′,6,6′-hepta-O-acetyl-β-D-maltosyl)-2-(4-chloro-3-nitro-phenyl)-acetamide]	4.23	
CC(=O)Nc1cc(CC(=O)N[C@@H]2O[C@H](COC(=O)c3ccccc3)[C@@H](O[C@H]3O[C@@H]4COC(c5ccccc5)O[C@H]4[C@H](O)[C@H]3O)[C@H](O)[C@H]2O)ccc1Cl (stereo partly drawn) [Example 51]	0.916	
